Reference: ChEMBL document CHEMBL1201862, “PubChem BioAssay data set” (2004)
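Briefly, cells in 96-well plates were exposed to five compound concentrations for 48 h, and endpoints were estimated by linear interpolation. GI50 = concentration required for 50% inhibition of growth.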 Active and inactive are the calls of the source. Cut-off read from the data, not from the text of the source: active = GI50 up to about 1.1 µM and inactive = higher.

What was measured:
Experiment in all cases: NCI-60 cell line screen, 48 h
[1] = tested on: RXF 393
[2] = tested on: OVCAR-4
[3] = tested on: SF-295
[4] = tested on: K562
[5] = tested on: NCI-H460
[6] = tested on: OVCAR-5
[7] = tested on: SK-MEL-28
[8] = tested on: 786-0
[9] = tested on: SN12C
[10] = tested on: HL-60
[11] = tested on: HCC 2998
[12] = tested on: HCT-116
[13] = tested on: A498
[14] = tested on: HOP-92
[15] = tested on: SK-MEL-5
[16] = tested on: SR

Measured: GI50

OCC(O)C(O)C(O)c1nn(-c2ccc(F)cc2)c2nc3cc(Cl)c(Cl)cc3nc12 (centres undefined)
inactive: [1] 15.6 µM | [2] 6.21 µM | [3] 29.1 µM | [4] 17.6 µM | [5] 25.5 µM | [6] > 100 µM | [7] 16.8 µM | [8] 17.3 µM | [9] 22.1 µM | [10] > 100 µM | [11] 29.4 µM | [12] 24.5 µM

Brc1cc(C2OCCCO2)ccc1OCc1ccccc1
inactive: [1] 67.9 µM | [2] 31.2 µM | [3] 52.8 µM | [4] 34.5 µM | [13] > 100 µM | [5] 50.9 µM | [6] 29.6 µM | [14] 33.6 µM | [7] > 100 µM | [8] 40.4 µM | [9] > 100 µM | [10] 25.2 µM | [15] 27.2 µM | [11] 30.3 µM

O=C(/C=C/c1c(O)ccc2ccccc12)c1ccccc1Cl
inactive: [1] 26.2 µM | [2] 39 µM | [3] 23.2 µM | [4] 20.2 µM | [13] 82 µM | [5] 30.6 µM | [6] > 100 µM | [14] 23.2 µM | [7] 23 µM | [8] 60.8 µM | [9] 26.7 µM | [10] 11.1 µM | [15] 18.2 µM | [11] > 100 µM | [12] 21.2 µM

CN(C)c1ccc(/C=C(/C(=O)O)c2csc(-c3nc(/C(=C\c4ccc(N(C)C)cc4)C(=O)O)cs3)n2)cc1
inactive: [1] > 100 µM | [3] > 100 µM | [4] 41.7 µM | [13] > 100 µM | [5] > 100 µM | [6] > 100 µM | [14] > 100 µM | [7] > 100 µM | [8] 46.2 µM | [9] > 100 µM | [10] 43 µM | [15] 86.5 µM | [11] > 100 µM | [12] > 100 µM

O=C1C2CC=CCC2C(=O)C12CCc1ccccc12 (centres undefined)
inactive: [1] > 100 µM | [2] > 100 µM | [3] > 100 µM | [4] > 100 µM | [5] > 100 µM | [14] > 100 µM | [7] > 100 µM | [8] > 100 µM | [9] > 100 µM | [10] 74.6 µM | [11] > 100 µM

Cn1cnc([N+](=O)[O-])c1Sc1n[nH]c(-c2ccc(Cl)cc2)n1
inactive: [1] 13.3 µM | [2] 18.3 µM | [3] 23.4 µM | [4] 13.7 µM | [13] 22.4 µM | [5] 20.8 µM | [6] 23.4 µM | [14] 14.5 µM | [7] 15.3 µM | [8] 20.3 µM | [16] 13.1 µM | [9] 15.5 µM | [15] 15.7 µM | [11] 21.3 µM | [12] 19.6 µM

OCC1OC2c3ccccc3COC2C1OCc1ccccc1 (centres undefined)
inactive: [1] > 100 µM | [2] > 100 µM | [3] 88.9 µM | [4] 96.4 µM | [5] > 100 µM | [6] > 100 µM | [7] > 100 µM | [8] > 100 µM | [16] > 100 µM | [9] > 100 µM | [15] 38.1 µM | [11] > 100 µM | [12] > 100 µM

COc1cc(CNc2cnc3ccc(N)cc3n2)cc(OC)c1OC
inactive: [1] > 100 µM | [2] > 100 µM | [3] > 100 µM | [4] 36.3 µM | [13] > 100 µM | [5] > 100 µM | [6] > 100 µM | [14] > 100 µM | [7] > 100 µM | [8] > 100 µM | [9] > 100 µM | [10] 36.3 µM | [15] 71.3 µM | [11] 72.4 µM | [12] > 100 µM

Cc1nc2nnnn2c2c1C(=O)Nc1ccccc1N2
inactive: [1] > 100 µM | [3] > 100 µM | [4] > 100 µM | [5] 28.4 µM | [14] > 100 µM | [7] > 100 µM | [8] > 100 µM | [16] 18.7 µM | [9] > 100 µM | [10] > 100 µM | [11] > 100 µM | [12] > 100 µM

COc1cccc(C(=O)N2CCc3ccccc32)c1OC
inactive: [1] 63.1 µM | [2] 48.9 µM | [3] 38.5 µM | [4] 34.7 µM | [5] 81.8 µM | [6] > 100 µM | [14] 53.5 µM | [7] > 100 µM | [8] > 100 µM | [16] 29.4 µM | [9] > 100 µM | [10] 27.8 µM | [15] 69.8 µM | [11] 85.1 µM | [12] 56.5 µM

NC1(CCCCCCCCCCC(=O)O)CNCCNCCNCCNC1
inactive: [1] 27.7 µM | [2] 30.9 µM | [3] > 100 µM | [4] 33.8 µM | [13] 13.7 µM | [5] 26.6 µM | [6] 16 µM | [7] > 100 µM | [8] 36.7 µM | [16] 22.7 µM | [9] 23.8 µM | [10] 15.9 µM | [15] 38.9 µM | [11] 15.2 µM | [12] 28.1 µM

CCc1c(C)[nH]c2c1/C(=N/N=C1\CCCc3[nH]c(C)c(CC)c31)CCC2
inactive: [1] 22.6 µM | [2] 18.1 µM | [3] 20.1 µM | [4] 16.7 µM | [13] 25.6 µM | [5] 18 µM | [6] 25.6 µM | [14] 14.5 µM | [7] 16.7 µM | [8] > 100 µM | [9] 29.2 µM | [10] 11.9 µM | [15] 14.2 µM | [11] > 100 µM | [12] 16.9 µM

Cc1ccc(/N=C2\N=C(N3CC(C)OC(C)C3)c3ccccc32)cc1 (centres undefined)
inactive: [1] 12.6 µM | [2] 18.1 µM | [3] 29.9 µM | [4] 34 µM | [13] 26.6 µM | [5] 27.2 µM | [6] 40.6 µM | [14] 1.41 µM | [7] 28.4 µM | [8] 34.4 µM | [9] 34.5 µM | [15] 23.6 µM | [11] 29.5 µM | [12] 20.2 µM

CC(O)CNC(=O)C(C)Oc1ccc(OCC2CCCCC2)cc1 (centres undefined)
inactive: [2] > 100 µM | [3] 84.1 µM | [4] > 100 µM | [13] 20.7 µM | [5] > 100 µM | [7] > 100 µM | [8] > 100 µM | [9] > 100 µM | [10] > 100 µM | [15] > 100 µM | [11] > 100 µM | [12] > 100 µM

CN(C)CCNC(=O)c1cccc2[nH]c(-c3cccnc3)nc12
inactive: [1] 16.9 µM | [2] 29.3 µM | [3] 30.5 µM | [4] 27.9 µM | [13] 14.2 µM | [5] 19.3 µM | [6] 28.1 µM | [14] 22.6 µM | [7] 31.7 µM | [8] 22.9 µM | [9] 18.2 µM | [10] 31.5 µM | [15] 16.9 µM | [11] 17.1 µM | [12] 9.55 µM

COc1cc(C[P+](c2ccccc2)(c2ccccc2)c2ccccc2)cc(OC)c1OC
inactive: [1] > 100 µM | [2] > 100 µM | [3] > 100 µM | [4] > 100 µM | [5] > 100 µM | [6] > 100 µM | [14] > 100 µM | [7] > 100 µM | [8] > 100 µM | [16] > 100 µM | [9] > 100 µM | [10] > 100 µM | [15] > 100 µM | [11] > 100 µM | [12] > 100 µM

COC(=O)/C(=N\NC(N)=S)C(C#N)c1ccccc1 (centres undefined)
inactive: [1] > 100 µM | [2] > 100 µM | [3] > 100 µM | [4] > 100 µM | [13] > 100 µM | [5] > 100 µM | [6] > 100 µM | [14] > 100 µM | [7] > 100 µM | [8] > 100 µM | [9] > 100 µM | [10] > 100 µM | [15] > 100 µM | [11] > 100 µM | [12] > 100 µM

Cn1c(=O)c2c(nc3n2CCC(=O)N3)n(C)c1=O
inactive: [1] > 100 µM | [2] > 100 µM | [3] > 100 µM | [4] > 100 µM | [13] > 100 µM | [5] > 100 µM | [6] > 100 µM | [14] > 100 µM | [7] > 100 µM | [8] > 100 µM | [16] > 100 µM | [9] > 100 µM | [10] > 100 µM | [15] > 100 µM

O=C(NCCCC/N=c1/cccccc1NCCCCNC(=O)OCc1ccccc1)OCc1ccccc1
inactive: [1] 17.8 µM | [2] 18.9 µM | [3] 13.5 µM | [4] 10.1 µM | [13] > 10 µM | [5] 11.5 µM | [6] 17.1 µM | [14] 3.14 µM | [7] 22.1 µM | [8] 16.4 µM | [9] 18.8 µM | [10] 13.2 µM | [15] 16.4 µM | [11] 15.7 µM | [12] 9.98 µM

CCCCCCCCCCCCSC(=S)c1c(C)[nH]n(-c2ccccc2)c1=O
inactive: [1] 10.3 µM | [2] 8.36 µM | [3] 12.5 µM | [4] 6.61 µM | [13] 26.7 µM | [6] 16.2 µM | [14] 25.8 µM | [7] 7.36 µM | [8] 15.6 µM | [9] 8.28 µM | [10] 8.59 µM | [15] 5.58 µM | [11] 5.36 µM
